# Results taken from US20240368664A1, “LIVE YEAST BIOSENSORS AND METHODS OF USE THEREOF” (priority 2021, published 2024).
# Where “and” joins values, the source holds several entries; their conditions need not be identical. Identical values can stand only once. No end group written: not given here.
# Experiments:
# [1] = tested on: CaSte2 with protease CaBar1; details: CaSte2 + CaBar1 (yBB02); Hill function best-fit ± standard error
# CaSte2 = details: for Hill Slope: CaSte2 (yTC384), no protease, Hill function best-fit ± standard error; for EC50 compared to the native CaPep / response of CaSte2: alanine scan, system without CaBar1 (yTC384)
# [2] = Metal-binding peptide absorbance scan; format: physicochemical; details: for absorbance maxima of copper complexes: 1 mM copper, 1 mM peptide, 50 mM Tris/HCl, NaClO4 buffer
# [3] = target: T1, Saccharomyces cerevisiae pheromone GPCR ScSte2 (Saccharomyces cerevisiae) (UniProt D6VTK4); assay: cell-based or functional assay
# T1 sequence: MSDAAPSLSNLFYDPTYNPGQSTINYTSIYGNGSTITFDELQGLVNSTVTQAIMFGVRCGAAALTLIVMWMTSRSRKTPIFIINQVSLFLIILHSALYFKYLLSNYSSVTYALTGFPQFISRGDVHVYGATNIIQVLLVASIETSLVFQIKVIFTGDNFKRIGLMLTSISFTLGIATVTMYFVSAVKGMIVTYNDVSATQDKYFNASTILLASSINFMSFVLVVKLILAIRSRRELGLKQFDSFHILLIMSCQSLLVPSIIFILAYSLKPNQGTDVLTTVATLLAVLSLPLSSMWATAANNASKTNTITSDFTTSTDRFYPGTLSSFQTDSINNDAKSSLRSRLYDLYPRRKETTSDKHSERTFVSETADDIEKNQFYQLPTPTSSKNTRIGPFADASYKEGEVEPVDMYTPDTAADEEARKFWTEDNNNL
# ScSte2 = ScSte2 (Saccharomyces cerevisiae, UniProt D6VTK4); assay: ScSte2 biosensor dose-response, ymTurquoise2 readout, no protease (incl. ScPep alanine scan, yTC391); format: cell-based; details: Hill function best-fit ± standard error
# ScSte2, sequence (D6VTK4 whole entry): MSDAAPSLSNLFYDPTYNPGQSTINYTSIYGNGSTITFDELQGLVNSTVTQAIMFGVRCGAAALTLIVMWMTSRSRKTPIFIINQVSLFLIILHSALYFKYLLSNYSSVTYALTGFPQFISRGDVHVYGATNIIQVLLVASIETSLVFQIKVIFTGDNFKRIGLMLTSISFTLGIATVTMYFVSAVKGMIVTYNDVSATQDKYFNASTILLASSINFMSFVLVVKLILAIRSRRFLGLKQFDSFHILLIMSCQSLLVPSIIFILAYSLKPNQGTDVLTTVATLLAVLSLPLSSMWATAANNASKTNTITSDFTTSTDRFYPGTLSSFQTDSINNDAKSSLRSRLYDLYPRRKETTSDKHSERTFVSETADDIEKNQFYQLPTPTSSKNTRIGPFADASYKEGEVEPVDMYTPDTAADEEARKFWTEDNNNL
# [4] = target: ScSte2 with protease ScBar1 (Saccharomyces cerevisiae, UniProt D6VTK4); format: cell-based
# ScSte2 with protease ScBar1, sequence (D6VTK4 whole entry): as above
# [5] = target: T2, A. fumigatus pheromone GPCR (AfuSte2) (Aspergillus fumigatus); assay: cell-based or functional assay
# T2 sequence: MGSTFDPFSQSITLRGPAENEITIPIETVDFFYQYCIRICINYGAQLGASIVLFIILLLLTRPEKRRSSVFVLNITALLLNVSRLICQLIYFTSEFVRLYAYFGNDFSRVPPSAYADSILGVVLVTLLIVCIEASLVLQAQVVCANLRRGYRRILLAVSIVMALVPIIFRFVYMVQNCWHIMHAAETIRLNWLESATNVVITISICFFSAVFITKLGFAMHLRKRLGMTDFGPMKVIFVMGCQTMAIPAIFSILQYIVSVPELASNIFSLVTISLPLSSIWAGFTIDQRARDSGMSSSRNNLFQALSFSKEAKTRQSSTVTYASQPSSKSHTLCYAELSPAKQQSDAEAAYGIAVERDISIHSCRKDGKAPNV
# [6] = target: T3, Candida albicans pheromone GPCR CaSte2 (Candida albicans); assay: cell-based or functional assay
# T3 sequence: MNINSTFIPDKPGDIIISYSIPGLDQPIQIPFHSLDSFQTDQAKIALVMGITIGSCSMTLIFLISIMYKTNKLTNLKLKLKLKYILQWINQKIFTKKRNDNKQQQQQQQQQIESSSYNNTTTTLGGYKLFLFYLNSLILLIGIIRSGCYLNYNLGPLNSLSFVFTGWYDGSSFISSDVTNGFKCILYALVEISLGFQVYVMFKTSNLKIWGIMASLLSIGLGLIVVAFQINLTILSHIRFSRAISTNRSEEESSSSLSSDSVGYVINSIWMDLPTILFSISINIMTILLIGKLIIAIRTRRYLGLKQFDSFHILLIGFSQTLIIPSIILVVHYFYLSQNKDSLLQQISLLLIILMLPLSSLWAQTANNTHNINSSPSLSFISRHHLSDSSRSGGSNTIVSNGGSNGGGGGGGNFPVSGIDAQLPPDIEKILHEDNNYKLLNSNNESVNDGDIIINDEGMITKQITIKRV
molecule,measurement,setting,value
GFRLTNFGYFEAA [12A13A],Hill Slope,[1],1.8 ± 0.1
same,Hill Slope,CaSte2,2.8 ± 0.1
same,EC50 compared to the native CaPep,CaSte2,more than two orders of magnitude higher EC50
KKH,absorbance maxima of copper complexes,[2],620 nm
GFRLTNAGYFEPG [7A],Hill Slope,[1],2.2 ± 0.4
same,Hill Slope,CaSte2,1.4 ± 0.1
same,response of CaSte2,CaSte2,practically non-responsive
ScPep12A (peptide),Top,[3],410 A.U. and 450 A.U.
WHWLQLKPAQPMY [ScPep9A],Hill Slope,ScSte2,5.0 ± 1.3
same,Bottom,[4],3.7 ± 2.1 A.U.
same,Hill Slope,[4],1.2 ± 0.1
same,LogEC50,[4],−4.8 ± 0.2 M
same,Top,[4],440 ± 10 A.U.
WAWLQLKPGQPMY [ScPep2A],Hill Slope,ScSte2,3.7 ± 0.2
same,Bottom,[4],5.9 ± 3.0 A.U.
same,Hill Slope,[4],1.5 ± 0.1
same,LogEC50,[4],−5.0 ± 0.1 M
same,Top,[4],350 ± 10 A.U.
synthetic A. fumigatus pheromone peptide (AfuPep),"EC50, GFP of the sender strain",[5],4 nM
same,"EC50, mCherry reporter in yeast",[5],100 nM
same,"EC50, mCherry, fine-tuned optimized strain",[5],40 nM
same,"EC50, mCherry, strain with natural signaling pathway",[5],10 nM
same,"LoD, lycopene readout, yTC590",[5],50 nM
same,"activation fold change, fine-tuned optimized strain",[5],2900 fold
same,"activation fold change, strain with natural signaling pathway",[5],19 fold
same,fold change of fluorescence readout,[5],4000 fold
same,"limit of detection (LoD), lycopene readout, yTC527",[5],30 nM
same,"maximal activation, mCherry, fine-tuned optimized strain",[5],2900 A.U.
same,"maximal activation, mCherry, strain with natural signaling pathway (yMJ194)",[5],450 A.U.
WHWLQLKPGQPAY [ScPep12A],Bottom,[4],2.5 ± 2.9 A.U.
same,Hill Slope,[4],1.3 ± 0.1
same,LogEC50,[4],−6.0 ± 0.1 M
same,Top,[4],450 ± 10 A.U.
ScPep2A (peptide),Top,[3],270 A.U. and 350 A.U.
"Scα-Smt3 (α-factor fused to the N-terminus of full-length Smt3, 6x-His-tag at the opposite terminus) (from UniProt Q12306 2-98)",EC50 (mCherry/OD600),[3],149 nM
WHWLALKPGQPMY [ScPep5A],Hill Slope,ScSte2,3.4 ± 0.3
same,Bottom,[4],0.52 ± 8.7 A.U.
same,Hill Slope,[4],1.2 ± 0.2
same,LogEC50,[4],−6.3 ± 0.1 M
same,Top,[4],340 ± 10 A.U.
GFRLTNFGYFAPG [CaPep11A],Hill Slope,[1],1.5 ± 0.2
CaPep1A (peptide),Top,[6],460 A.U. and 410 A.U.
AFRLTNFGYFEPG [CaPep1A],Hill Slope,[1],1.1 ± 0.22
same,Hill Slope,CaSte2,3.0 ± 0.4
AAH,absorbance maxima of copper complexes,[2],520 nm
ScPep10A (peptide),Top,[3],380 A.U. and 420 A.U.
ScPep13A (peptide),Top,[3],360 A.U. and 490 A.U.
WHWLQLKAGQPMY [ScPep8A],Hill Slope,ScSte2,2.7 ± 0.1
same,Bottom,[4],4.6 ± 2.6 A.U.
same,Hill Slope,[4],1.1 ± 0.1
same,LogEC50,[4],−5.6 ± 0.1 M
same,Top,[4],440 ± 10 A.U.
GFRLTNFGYFEAG [12A],Hill Slope,[1],1.1 ± 0.1
same,Hill Slope,CaSte2,0.95 ± 0.04
same,EC50 compared to the native CaPep,CaSte2,more than two orders of magnitude higher EC50
ScPep5A (peptide),Top,[3],380 A.U. and 340 A.U.
"Smt3-Scα-Smt3 (two Smt3 fused in tandem with an α-factor linker, N-terminus 6x-His-tag) (from UniProt Q12306 1-98; Q12306 2-98)",EC50 (mCherry/OD600),[3],1080 nM
CaPep7A (peptide),LogEC50,[6],-5.5 log M and -5.6 log M
same,Top,[6],34 A.U. and 17 A.U.
ScPep8A (peptide),Top,[3],430 A.U. and 440 A.U.
GFALTNFGYFEPG [CaPep3A],Hill Slope,[1],0.74 ± 0.08
same,Hill Slope,CaSte2,2.0 ± 0.1
CaPep2A13A (peptide),"EC50, ymTurquoise2, strain with the protease CaBar1",[6],70 nM
same,"EC50, ymTurquoise2, strain without the protease",[6],50 nM
same,LogEC50,[6],-7 log M and -6.5 log M
same,Top,[6],790 A.U. and 680 A.U.
WHWLQAKPGQPMY [ScPep6A],Hill Slope,ScSte2,5.6 ± 0.7
same,Bottom,[4],0.38 ± 5.71 A.U.
same,Hill Slope,[4],0.99 ± 0.10
same,LogEC50,[4],−5.5 ± 0.1 M
same,Top,[4],390 ± 10 A.U.
WHALQLKPGQPMY [ScPep3A],Hill Slope,ScSte2,2.5 ± 0.1
same,Bottom,[4],6.4 ± 2.6 A.U.
same,Hill Slope,[4],0.74 ± 0.05
same,LogEC50,[4],−4.6 ± 0.1 M
same,Top,[4],370 ± 20 A.U.
GFRLTNFGAFEPG [CaPep9A],Hill Slope,[1],1.7 ± 0.2
same,Hill Slope,CaSte2,1.9 ± 0.1
ScPep9A (peptide),Top,[3],370 A.U. and 440 A.U.
CaPep4A (peptide),LogEC50,[6],-6.5 log M and -6.1 log M
same,Top,[6],460 A.U. and 410 A.U.
WHWLQLKPGQPMA [ScPep13A],Hill Slope,ScSte2,8.2 ± 3.1
same,Bottom,[4],4.6 ± 2.5 A.U.
same,Hill Slope,[4],1.2 ± 0.1
same,LogEC50,[4],−5.1 ± 0.1 M
same,Top,[4],490 ± 10 A.U.
WHWLQLAPGQPMY [ScPep7A],Hill Slope,ScSte2,2.6 ± 0.4
same,Bottom,[4],5.7 ± 1.3 A.U.
same,Hill Slope,[4],1.7 ± 0.1
same,LogEC50,[4],−5.4 ± 0.1 M
same,Top,[4],380 ± 10 A.U.
ScPep3A (peptide),Top,[3],280 A.U. and 370 A.U.
"O.O.[Cl][Cu][Cl] [Copper, CuCl2×2H2O]",absorbance peak,[2]; copper alone in Tris/HCl buffer,630 nm
GFRLTAFGYFEPG [CaPep6A],Hill Slope,[1],1.7 ± 0.2
same,Hill Slope,CaSte2,4.4 ± 0.4
GFRLANFGYFEPG [CaPep5A],Hill Slope,CaSte2,2.7 ± 0.7
same,response of CaSte2,CaSte2,practically non-responsive
CaPep8A (peptide),Top,[6],640 A.U. and 460 A.U.
AHWLQLKPGQPMY [ScPep1A],Hill Slope,ScSte2,3.4 ± 0.8
same,Bottom,[4],−3.1 ± 5.8 A.U.
same,Hill Slope,[4],0.76 ± 0.06
same,LogEC50,[4],−5.9 ± 0.1 M
same,Top,[4],350 ± 10 A.U.
"DAHK (UniProt P02768 25-28, looked up, fragment)",absorbance maxima of copper complexes,[2],520 nm
GFRLTNFAYFEPG [CaPep8A],Hill Slope,[1],1.0 ± 0.1
same,Hill Slope,CaSte2,1.3 ± 0.3
ScPep11A (peptide),Top,[3],410 A.U.
CaPep9A (peptide),Top,[6],700 A.U. and 480 A.U.
"Smt3-Scα (α-factor fused to the C-terminus of full-length Smt3, 6x-His-tag at the opposite terminus) (from UniProt Q12306 1-98)",EC50 (mCherry/OD600),[3],208 nM
GFRLTNFGAAEPG [9A10A],Hill Slope,[1],1.0 ± 0.1
same,Hill Slope,CaSte2,0.99 ± 0.04
same,EC50 compared to the native CaPep,CaSte2,more than two orders of magnitude higher EC50
WHWAQLKPGQPMY [ScPep4A],Bottom,[4],−1.6 ± 2.9 A.U.
same,Hill Slope,[4],0.72 ± 0.04
same,LogEC50,[4],−5.4 ± 0.1 M
same,Top,[4],340 ± 10 A.U.
WHWLQLKPGAPMY [ScPep10A],Hill Slope,ScSte2,5.3 ± 3.7
same,Bottom,[4],8.3 ± 1.6 A.U.
same,Hill Slope,[4],1.8 ± 0.1
same,LogEC50,[4],−5.2 ± 0.1 M
same,Top,[4],420 ± 10 A.U.
S. cerevisiae pheromone peptide (ScPep),EC50 (mCherry/OD600),[3],2 nM
same,Top,[3],380 A.U. and 390 A.U.
ScPep7A (peptide),Top,[3],400 A.U. and 380 A.U.
GFRLTNFGYAEPG [CaPep10A],Hill Slope,[1],2.6 ± 0.13
same,Hill Slope,CaSte2,2.8 ± 0.5
same,EC50 compared to the native CaPep,CaSte2,more than two orders of magnitude higher EC50
C. albicans pheromone peptide (CaPep),"EC50, lycopene readout, strains preincubated, +CaBar1",[6],4000 nM
same,"EC50, ymTurquoise2, biosensor with CaBar1 (pRPL18B)",[6],90 nM
same,"EC50, ymTurquoise2, biosensor without protease",[6],7 nM
same,LogEC50,[6],-7.2 log M
same,Top,[6],460 A.U. and 420 A.U.
GFRATNFGYFEPG [CaPep4A],Hill Slope,[1],2.4 ± 0.4
same,Hill Slope,CaSte2,1.3 ± 0.1
ScPep6A (peptide),Top,[3],310 A.U. and 390 A.U.
WHWLQLKPGQAMY [ScPep11A],Hill Slope,ScSte2,4.6 ± 1.3
same,Bottom,[4],8.0 ± 2.5 A.U.
same,Hill Slope,[4],1.5 ± 0.1
same,LogEC50,[4],−5.6 ± 0.1 M
same,Top,[4],410 ± 10 A.U.
ScPep4A (peptide),Top,[3],250 A.U. and 340 A.U.
ScPep1A (peptide),Top,[3],320 A.U. and 350 A.U.
CaPep6A (peptide),LogEC50,[6],-6.2 log M and -5.9 log M
same,Top,[6],570 A.U. and 450 A.U.
CaPep3A (peptide),Top,[6],460 A.U.
CaPep5A (peptide),LogEC50,[6],-5.2 log M and -4.9 log M
same,Top,[6],15 A.U. and 13 A.U.
